Data published in ChEMBL document CHEMBL1201862, “PubChem BioAssay data set” (2004).
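Cells were grown in 96-well plates and exposed to each compound for 48 hours at five concentrations; endpoints were interpolated linearly between bracketing concentrations, or set to the highest concentration if not reached. GI50 marks 50% less growth.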 Active and inactive are the calls of the source. No stated cut-off is given here; in the data, active = GI50 up to about 1.1 µM and inactive = higher.

Assays:
Assay in all cases: inhibition of tumour cell growth, NCI panel, 48 h
SK-OV-3 = system: SK-OV-3
PC-3 = system: PC-3
COLO 205 = system: COLO 205
UACC-257 = system: UACC-257
HT-29 = system: HT-29
HL-60 = system: HL-60
MOLT-4 = system: MOLT-4
IGROV-1 = system: IGROV-1
CAKI-1 = system: CAKI-1
Malme-3M = system: Malme-3M
SK-MEL-28 = system: SK-MEL-28
NCI-H522 = system: NCI-H522
OVCAR-3 = system: OVCAR-3
OVCAR-4 = system: OVCAR-4
KM12 = system: KM12
SK-MEL-2 = system: SK-MEL-2
SNB-19 = system: SNB-19
NCI/ADR-RES = system: NCI/ADR-RES
MDA-N = system: MDA-N
HOP-62 = system: HOP-62
OVCAR-8 = system: OVCAR-8
K562 = system: K562
NCI-H226 = system: NCI-H226
HOP-92 = system: HOP-92
NCI-H23 = system: NCI-H23
MDA-MB-231 = system: MDA-MB-231
SF-539 = system: SF-539
SR = system: SR
UACC-62 = system: UACC-62
SN12C = system: SN12C
ACHN = system: ACHN
786-0 = system: 786-0
HCT-15 = system: HCT-15
Hs-578T = system: Hs-578T
TK-10 = system: TK-10
SF-295 = system: SF-295
UO-31 = system: UO-31
MDA-MB-435 = system: MDA-MB-435
SF-268 = system: SF-268
T47D = system: T47D
BT-549 = system: BT-549
NCI-H460 = system: NCI-H460
RPMI-8226 = system: RPMI-8226
MCF7 = system: MCF7
SK-MEL-5 = system: SK-MEL-5
LOX IMVI = system: LOX IMVI
DU-145 = system: DU-145
U-251 = system: U-251
M14 = system: M14
HCT-116 = system: HCT-116
SW-620 = system: SW-620
A498 = system: A498
OVCAR-5 = system: OVCAR-5
EKVX = system: EKVX
A549 = system: A549
CCRF-CEM = system: CCRF-CEM
RXF 393 = system: RXF 393
SNB-75 = system: SNB-75
HCC 2998 = system: HCC 2998

Measured: GI50

CN(C)CCNCCN
> 100 µM: HCT-15
inactive: SK-OV-3 > 100 µM | PC-3 > 100 µM | COLO 205 > 100 µM | UACC-257 > 100 µM | HT-29 > 100 µM | HL-60 > 100 µM | MOLT-4 > 100 µM | IGROV-1 > 100 µM | CAKI-1 > 100 µM | Malme-3M > 100 µM | SK-MEL-28 > 100 µM | NCI-H522 > 100 µM | OVCAR-3 > 100 µM | OVCAR-4 > 100 µM | KM12 > 100 µM | SK-MEL-2 > 100 µM | SNB-19 > 100 µM | NCI/ADR-RES > 100 µM | MDA-N > 100 µM | HOP-62 > 100 µM | OVCAR-8 > 100 µM | K562 > 100 µM | NCI-H226 > 100 µM | HOP-92 > 100 µM | NCI-H23 > 100 µM | MDA-MB-231 > 100 µM | SF-539 > 100 µM | SR > 100 µM | UACC-62 > 100 µM | SN12C > 100 µM | ACHN > 100 µM | 786-0 > 100 µM | Hs-578T > 100 µM | TK-10 > 100 µM | SF-295 > 100 µM | UO-31 > 100 µM | MDA-MB-435 > 100 µM | SF-268 > 100 µM | T47D > 100 µM | BT-549 > 100 µM | NCI-H460 > 100 µM | RPMI-8226 > 100 µM | MCF7 > 100 µM | SK-MEL-5 > 100 µM | LOX IMVI > 100 µM | DU-145 > 100 µM | U-251 > 100 µM | M14 > 100 µM | HCT-116 > 100 µM | SW-620 > 100 µM | A498 > 100 µM | OVCAR-5 > 100 µM | EKVX > 100 µM | A549 > 100 µM

NC(=O)c1ccc[n+](C2=C([N-]S(=O)(=O)c3ccccc3)C(=O)c3ccccc3C2=O)c1
23.3 µM: HCT-15
inactive: SK-OV-3 29.4 µM | PC-3 15.9 µM | CCRF-CEM 42.6 µM | COLO 205 12.8 µM | UACC-257 14.2 µM | HT-29 17.1 µM | HL-60 18.5 µM | MOLT-4 25.2 µM | IGROV-1 11.8 µM | CAKI-1 22.1 µM | Malme-3M 6.22 µM | SK-MEL-28 16 µM | NCI-H522 10.9 µM | OVCAR-3 5.08 µM | OVCAR-4 1.17 µM | KM12 13.1 µM | SK-MEL-2 12.8 µM | SNB-19 15.8 µM | NCI/ADR-RES 15.8 µM | MDA-N 16.7 µM | HOP-62 17.9 µM | OVCAR-8 14.9 µM | K562 64.3 µM | NCI-H226 14.7 µM | HOP-92 13.6 µM | NCI-H23 14.9 µM | RXF 393 15.8 µM | MDA-MB-231 18.1 µM | SF-539 18 µM | SR 33.6 µM | UACC-62 17.9 µM | SN12C 16.9 µM | ACHN 13.4 µM | 786-0 17.8 µM | Hs-578T 22 µM | TK-10 20.4 µM | SF-295 17.5 µM | UO-31 14.5 µM | MDA-MB-435 4.89 µM | SF-268 16.6 µM | T47D 22.6 µM | BT-549 14.8 µM | NCI-H460 17.9 µM | RPMI-8226 26.2 µM | SNB-75 14.4 µM | MCF7 14.8 µM | SK-MEL-5 5.51 µM | LOX IMVI 12.9 µM | DU-145 19.1 µM | U-251 15.1 µM | M14 15.7 µM | HCT-116 17.5 µM | SW-620 16.6 µM | OVCAR-5 19.1 µM | HCC 2998 10.3 µM | EKVX 14.3 µM | A549 19.3 µM

N#Cc1c(-c2ccc(Cl)cc2)cc(-c2nc3ccccc3[nH]2)nc1N
10.9 µM: HCT-15
inactive: SK-OV-3 19.5 µM | PC-3 11 µM | CCRF-CEM 5.57 µM | COLO 205 4.3 µM | UACC-257 5.14 µM | HT-29 9.16 µM | HL-60 11.2 µM | MOLT-4 2.92 µM | IGROV-1 2.39 µM | CAKI-1 17.9 µM | Malme-3M 16.6 µM | SK-MEL-28 12.2 µM | NCI-H522 13.7 µM | OVCAR-3 12.5 µM | OVCAR-4 18.6 µM | KM12 10 µM | SK-MEL-2 12.6 µM | SNB-19 12.1 µM | NCI/ADR-RES 15 µM | MDA-N 6.49 µM | HOP-62 14.4 µM | OVCAR-8 13 µM | K562 6.71 µM | NCI-H226 10.8 µM | HOP-92 11 µM | NCI-H23 14.2 µM | MDA-MB-231 12.2 µM | SF-539 15.3 µM | SR 4.56 µM | UACC-62 7.66 µM | SN12C 13.4 µM | ACHN 11.1 µM | 786-0 11.3 µM | Hs-578T 16.5 µM | TK-10 10.1 µM | SF-295 10.7 µM | UO-31 9.1 µM | MDA-MB-435 5.43 µM | SF-268 7.98 µM | T47D 3.12 µM | BT-549 14.4 µM | NCI-H460 7.19 µM | RPMI-8226 4.22 µM | SNB-75 10.8 µM | MCF7 3.49 µM | SK-MEL-5 6.67 µM | LOX IMVI 10.2 µM | DU-145 6.98 µM | M14 4.32 µM | HCT-116 10.3 µM | SW-620 15 µM | A498 8.85 µM | OVCAR-5 19.5 µM | HCC 2998 4.02 µM | EKVX 11 µM | A549 5.92 µM

CN(/N=C/c1ccccc1C(=O)O)C1=NCCCCN1
> 100 µM: HCT-15
inactive: SK-OV-3 > 100 µM | PC-3 > 100 µM | CCRF-CEM > 100 µM | COLO 205 > 100 µM | UACC-257 > 100 µM | HT-29 > 100 µM | HL-60 > 100 µM | MOLT-4 > 100 µM | IGROV-1 > 100 µM | CAKI-1 > 100 µM | Malme-3M > 100 µM | NCI-H522 19.1 µM | OVCAR-3 > 100 µM | OVCAR-4 > 100 µM | KM12 > 100 µM | SK-MEL-2 > 100 µM | SNB-19 > 100 µM | NCI/ADR-RES > 100 µM | MDA-N > 100 µM | HOP-62 > 100 µM | OVCAR-8 > 100 µM | K562 > 100 µM | NCI-H226 > 100 µM | HOP-92 > 100 µM | NCI-H23 > 100 µM | MDA-MB-231 > 100 µM | SF-539 > 100 µM | SR > 100 µM | UACC-62 > 100 µM | SN12C > 100 µM | ACHN > 100 µM | 786-0 > 100 µM | Hs-578T > 100 µM | TK-10 > 100 µM | SF-295 > 100 µM | UO-31 > 100 µM | MDA-MB-435 > 100 µM | SF-268 > 100 µM | T47D > 100 µM | BT-549 > 100 µM | NCI-H460 > 100 µM | RPMI-8226 > 100 µM | SNB-75 > 100 µM | MCF7 > 100 µM | SK-MEL-5 > 100 µM | LOX IMVI > 100 µM | DU-145 > 100 µM | U-251 > 100 µM | M14 > 100 µM | HCT-116 > 100 µM | SW-620 > 100 µM | A498 > 100 µM | OVCAR-5 > 100 µM | HCC 2998 > 100 µM | EKVX > 100 µM | A549 > 100 µM

CN1/C(=C\N=O)C(C)(C)N(O)C1(C)C
inactive: SK-OV-3 > 100 µM | PC-3 > 100 µM | CCRF-CEM > 100 µM | COLO 205 > 100 µM | UACC-257 > 100 µM | HT-29 > 100 µM | HL-60 > 100 µM | MOLT-4 > 100 µM | IGROV-1 > 100 µM | CAKI-1 > 100 µM | Malme-3M > 100 µM | SK-MEL-28 > 100 µM | NCI-H522 > 100 µM | OVCAR-3 > 100 µM | OVCAR-4 > 100 µM | KM12 > 100 µM | SK-MEL-2 > 100 µM | SNB-19 > 100 µM | NCI/ADR-RES > 100 µM | MDA-N > 100 µM | HOP-62 > 100 µM | OVCAR-8 > 100 µM | K562 > 100 µM | NCI-H226 > 100 µM | HOP-92 > 100 µM | NCI-H23 > 100 µM | MDA-MB-231 > 100 µM | SF-539 > 100 µM | SR > 100 µM | UACC-62 > 100 µM | SN12C > 100 µM | ACHN > 100 µM | 786-0 > 100 µM | Hs-578T > 100 µM | TK-10 > 100 µM | SF-295 > 100 µM | UO-31 > 100 µM | MDA-MB-435 > 100 µM | SF-268 > 100 µM | T47D > 100 µM | BT-549 > 100 µM | NCI-H460 > 100 µM | RPMI-8226 > 100 µM | SNB-75 > 100 µM | MCF7 > 100 µM | SK-MEL-5 > 100 µM | LOX IMVI > 100 µM | DU-145 > 100 µM | U-251 > 100 µM | M14 > 100 µM | HCT-116 > 100 µM | SW-620 > 100 µM | OVCAR-5 > 100 µM | HCC 2998 > 100 µM | EKVX > 100 µM | A549 > 100 µM
> 100 µM: HCT-15
